Laboratory results reported in patent US11839623B2, “Antiviral prodrugs and formulations thereof” (BOARD OF REGENTS OF THE UNIVERSITY OF NEBRASKA, priority 2018, dated 2023).
“And” between values parts separate entries of the source, which are not always exact repeats. Equal values may be shown once.

Key:
[1] = test system: monocyte-derived macrophages (MDM); assay: Cell viability of ABC and its ProTides in MDM (CCK-8); format: cell-based, human
Procedure: Cell viability of ABC and its ProTides: A CCK-8 Kit was purchased from Dojindo (Rockville, Md.) and used to test cell viability after treatment with ABC and its ProTides. Briefly, MDM plated in a 96-well plate were treated with 100 μl of 0-400 μM ABC and its ProTides for 24 hours. Drug containing medium was removed and replaced with fresh medium. Ten μl of CCK-8 solution was added to each well followed by incubation of the plate for 2 hours at 37° C. The absorbance (at 450 nm) of each well was measured using a microplate reader. The cell viability was calculated according to manufacturer's instructions.

[2] = test system: monocyte-derived macrophages (MDM); assay: Intracellular level of CBV-TP in MDM treated with 10 μM ABC or ABC ProTides; format: cell-based; conditions: 10 μM drug; for maximum CBV-TP levels: 3-48 hours; for percentage decrease of intracellular CBV-TP from Cmax at 48 hours: (Cmax−Cmin)/(Cmax)*100
Procedure: (§1) Cell model for in vitro studies: Human peripheral blood monocytes were obtained and cultured as described (Gendelman, et al., J. Exp. Med. (1988) 167:1428-1441). Briefly, human peripheral blood monocytes were obtained by leukapheresis from HIV-1/2 and hepatitis B seronegative donors, followed by purification via countercurrent centrifugal elutriation. Elutriated monocytes were cultured as adherent cells in Dulbecco's […] medium (DMEM) supplemented with 10% heat-inactivated pooled human serum, 10 μg/mL ciprofloxacin, 50 μg/mL gentamicin, and 1000 U/mL recombinant macrophage colony stimulating factor. Cells were maintained at 37° C. in a 5% CO2 incubator. Seven days later, differentiated macrophages (MDM) were used for the experiments.
Intracellular level of CBV-TP of ABC and its ProTides: Intracellular levels of CBV-TP were measured as described (Balzarini, et al., FEBS Lett. (2004) 573:38-44). MDM were treated with 10 μM ABC and ABC ProTides. At 3, 6, 12, 24 and 48 hours after treatment, MDM were washed with PBS to remove excess free drug. The cells were then collected in 70% methanol. CBV-TP from MDM was extracted and quantitated by LC-MS/MS as described (Gautam, et al., J. Pharm. Biomed. Anal. (2018) 153:248-259). Sep-Pak QMA cartridges (360 mg, 37-55 μm; Waters) were used to separate CBV-TP from their mono- and di-phosphates counterparts. The QMA cartridges were conditioned with 10 ml of 500 mM KCl followed by 10 ml of 5 mM KCl. Samples were loaded onto the cartridges and washed with 15 ml of 75 mM KCl. The triphosphate fraction was eluted with 3 ml of 500 mM KCl and collected for de-phosphorylation. The pH of the TP fraction was lowered to 4.25 by adding 15 μl ammonium acetate buffer (pH 4.10 mM) per ml eluate, and dephosphorylated by adding one unit of type XA sweet potato acid phosphatase per ml eluate and incubating at 37° C. for 30 minutes. The ^15N2^13C-3TC and d4-ABC internal standard was added at this point. Samples were then loaded onto Waters OASIS® HLB cartridges (60 mg, 30 μm; Waters) pre-conditioned with 3 ml MeOH and 3 ml H2O, and washed with 3.5 ml H2O to remove salts. The nucleosides of interest were then eluted with 1.5 ml of MeOH and evaporated under vacuum. Once dry, the residue was reconstituted with a 100 μl of 25% MeOH and stored in the −20° C. freezer until the time of LC-MS/MS analyses. The LC-MS/MS system comprised of a Waters ACQUITY ultra-performance liquid chromatography (UPLC) system (Waters, Milford, Mass.) coupled to a triple quadrupole mass spectrometer with electrospray ionization (ESI) source (Waters Xevo TQ-XS). For the indirect quantification of TPs, chromatographic separation was performed with an ACQUITY UPLC using CSH analytical column (2.1×100 mm, 1.7 μm; Waters) equipped with a guard column (Waters, Milford, Mass.). Mobile phase A consisted of ammonium bicarbonate (pH 7, 7.5 mM) and mobile phase B was methanol. The flow rate was 0.25 ml/minute. […] Mobile phase B was then reset to 12% over 0.25 minutes and the column was equilibrated for 2.75 minutes before the next injection. The total run time was 13 minutes. The mass spectrometer was operated in the positive ion mode using multiple reaction monitoring (MRM). The following transitions were monitored: m/z 230→112 for 3TC, m/z 248→152 for CBV, m/z 287→191 for ABC, m/z 233→115 for the internal standard (IS) ^15N2^13C-3TC, and m/z 291→195 for IS d4-ABC. 3TC, CBV, ABC, ^15N2^13C-3TC, and d4-ABC were detected at a cone voltage of 22, 2, 4, 12, and 2 V, respectively, and a collision energy of 12, 12, 20, 10, and 20 V, respectively.

[3] = test system: HIV-1ADA; assay: Antiretroviral activity of ABC and its ProTides against HIV-1ADA in MDM (RT activity); format: cell-based; conditions: human MDM, RT activity day 10 post infection
Procedure: as §1
Antiretroviral activity of ABC and its ProTides: The antiviral activities of native ABC and ABC ProTides against HIV-1ADA were determined in MDM as described (Singh, et al., Nanomedicine (2016) 11:1913-1927). MDM were incubated with various concentrations of ABC or ABC ProTides for 60 minutes followed by infection with HIV-1ADA at a multiplicity of infection (MOI) of 0.01 for 4 hours. […] At day 10 post infection, supernatants were collected and analyzed for HIV-1 reverse transcriptase (RT) activity (Kalter, et al., J. Clin. Microbiol. (1992) 30:993-995).

[4] = Stability assay in serum; format: in vitro ADME, human; conditions: 37° C., 24 hours, 15 μg/ml
Procedure: Stability Assay in Serum: The experiment was carried out by adding each ProTide into 100 μl human serum to reach a final concentration of 15 μg/ml in glass vial, and duplicate samples were used for each ProTide. After incubating the samples at 37° C. with shaking for 24 hours, 900 μl of MeOH was added to stop the reaction. Samples were vortexed for 3 minutes, then centrifuged down at 16,000 g for 10 minutes. The supernatants were transfer to new 2 ml tubes and evaporated to dryness under vacuum. The samples were reconstituted using 50 μl of MeOH, vortexed for 3 minutes and centrifuged down at 16,000 g for 10 minutes. The supernatants were analyzed by HPLC for drug concentrations. For control sample (0 minute), MeOH were added first to stop the enzyme before adding the ProTides.

[5] = test system: HIV-1ADA; assay: Antiretroviral efficacy of ABC, PABC, NPABC in MDM challenged with HIV-1ADA (RT activity, p24); format: cell-based; conditions: 100 μM 8 hours
Procedure: Antiretroviral activities. Antiretroviral efficacy was determined by measurements of HIV reverse transcriptase (RT) activity. For IC50 determination, MDM were exposed to various concentrations (0.01-1000 nM) of ABC, MABC or PABC for 1 hour followed by challenge with HIV-1ADA at a multiplicity of infection (MOI) of 0.1 infectious particles per cell for 4 hours. Following viral challenge, cells were washed and incubated with the same concentration of drug used before infection for an additional 10 days in culture. Culture fluids were collected on day 10 for the measurement of RT activity. To assess antiretroviral efficacy, MDM were treated with 100 μM ABC, PABC or NPABC as described above for 8 hours. After treatment, cells were washed with PBS and cultured with fresh media, with half-media exchanges every other day. At 0, 4, 12 hours, and 1, 5, 10, 15 or 20 days after treatment, cells were challenged with HIV-1ADA at an MOI of 0.1 infectious particles per cell for 16 hours. After viral infection, the cells were cultured an additional 10 days with half-media exchanges every other day. […] Cells were fixed with 4% PFA and expression of HIV-1 p24 antigen was determined by immunocytochemistry.
Significant improvements in MDM antiretroviral efficacy were also observed for PABC and NPABC. […] HIV-1 p24 was not detected in the PABC or NPABC-treated groups at the measured timepoints (FIG. 6). […]

[6] = test system: HIV-1ADA; assay: IC50 determination of ABC, MABC, PABC in MDM challenged with HIV-1ADA (RT activity); format: cell-based; conditions: HIV-1ADA MOI 0.1, RT activity day 10, read-out: IC50 on reverse transcriptase
Procedure: Antiretroviral activities. Antiretroviral efficacy was determined by measurements of HIV reverse transcriptase (RT) activity. For IC50 determination, MDM were exposed to various concentrations (0.01-1000 nM) of ABC, MABC or PABC for 1 hour followed by challenge with HIV-1ADA at a multiplicity of infection (MOI) of 0.1 infectious particles per cell for 4 hours. Following viral challenge, cells were washed and incubated with the same concentration of drug used before infection for an additional 10 days in culture. Culture fluids were collected on day 10 for the measurement of RT activity. To assess antiretroviral efficacy, MDM were treated with 100 μM ABC, PABC or NPABC as described above for 8 hours. After treatment, cells were washed with PBS and cultured with fresh media, with half-media exchanges every other day. At 0, 4, 12 hours, and 1, 5, 10, 15 or 20 days after treatment, cells were challenged with HIV-1ADA at an MOI of 0.1 infectious particles per cell for 16 hours. After viral infection, the cells were cultured an additional 10 days with half-media exchanges every other day. Culture fluids were collected for measurement of RT activity. Cells were fixed with 4% PFA and expression of HIV-1 p24 antigen was determined by immunocytochemistry.

[7] = Characterization of NPABC nanoparticles (DLS, drug loading); format: physicochemical; conditions: PABC nanocrystals
Source text: The LASER ProTide nanocrystals (NPABC, NP3TC, NPFTC and NPTFV) may be coated with either cell or tissue receptor targeted or non-targeted poloxamer 407 (P407), poloxamer 338 (P338), 1,2-distearoyl-sn-glycero-3-phosphocholine (DSPC), 1,2-distearoyl-sn-glycero-3-phosphoethanolamine-N-carboxy(polyethylene glycol)-2000 (DSPE-PEG) or polyvinyl alcohol (PVA). The nanocrystals may also be stabilized with polysorbate and polyethylene glycol surfactants. Here, a drug to surfactant ratio of 2:1 by weight was used to manufacture NPABC nanoparticles. Briefly, 1-5% (w/v) PABC and 0.5-2.5% (w/v) P407 were mixed in sterile phosphate buffer. The premixed suspensions were nanoformulated by wet milling or high-pressure homogenization at 20,000-psi until desirable size and polydispersity index were achieved. The LASER ProTide nanoformulations were characterized for particle size, polydispersity index (PDI) and zeta potential by dynamic light scattering (DLS). […] For P407-PABC nanoparticles (NPABC), the average size (diameter) was 350 nm, the PDI was 0.28, and the charge was −21.4 mV.
Nanoparticle morphology was determined by scanning electron microscopy (SEM). UPLC MS/MS was used for drug quantitation. The conversion of ABC to PABC facilitated production of stable nanocrystals with a drug loading capacity of more than 70%.

prodrug hydrolyzed/degraded in human serum [4]	IC50 [6]	drug loading capacity [7]	Structure (SMILES)	mitochondrial activity compared to ABC ([1]; 400 μM)	maximum CBV-TP levels [2]	CBV-TP levels at 48 hours [2]	percentage decrease of intracellular CBV-TP from Cmax at 48 hours [2]	EC50 [3]	cell viability difference versus ABC ([1]; all tested drug concentrations (0-400 μM))	antiretroviral activity compared to ABC [5]	HIV-1 p24 ([5]; challenge after 1-20 days)
–	–	–	COC(=O)C(C)NP(=O)(OCC1C=CC(n2cnc3c(NC4CC4)nc(N)nc32)C1)Oc1ccccc1 (mixture of isomers) [M1ABC]	differences in mitochondrial activity were seen	35650 fmol per million cells	789 fmol per million cells	97% and 97.8%	1.8 nM	–	–	–
Nineteen percent	–	–	CCCCCCCCCCCCCCCCCCCCCCOC(=O)C(Cc1ccccc1)NP(=O)(OCC1C=CC(n2cnc3c(NC4CC4)nc(N)nc32)C1)Oc1ccccc1 (mixture of isomers) [M3ABC]	–	541 fmol per million cells	230 fmol per million cells	57% and 57.3%	7 nM	No significant differences	–	–
–	20.5 nM	more than 70%	CCCCCCCCCCCCCCCCCCCCCCOC(=O)C(Cc1ccccc1)NP(=O)(OCC1C=CC(n2cnc3c(NC4CC4)nc(N)nc32)C1)Oc1ccccc1 (mixture of isomers) [PABC]	–	–	–	–	–	–	enhanced antiretroviral activity	not detected
–	227 nM	–	CCCCCCCCCCCCCC(=O)OCC1C=CC(n2cnc3c(NC4CC4)nc(N)nc32)C1 (stereo not shown) [MABC]	–	–	–	–	–	–	–	–
